Measurements published in US9695155B2, “Herbicidal substituted pyrimidinyloxy benzene compounds” (E. I. DU PONT DE NEMOURS AND COMPANY, priority 2013, dated 2017).

Experiments:
barnyardgrass [1] = assay: Test B flooded paddy test; type: in vivo, Echinochloa crus-galli; details: Flood, 250 g ai/ha; 0 to 100 scale where 0 is no effect and 100 is complete control
Method in brief: (§1)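 Post-emergence paddy-water application at the 2-leaf stage, with 3 cm flood kept for the whole test. Response was judged visually relative to controls after 13 to 15 greenhouse days, 0 indicating no effect and 100 complete control.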

pigweed [2] = assay: Test A postemergence; type: in vivo, Amaranthus retroflexus; details: 0 to 100 scale, 0 no effect, 100 complete control
Method in brief: (§2)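 Greenhouse pot test, loam/sand soil. Formulation: non-phytotoxic solvent mix plus surfactant. Pre: directed spray onto soil after sowing. Post: plants at 1–2 leaf, 2–10 cm. Rated visually vs untreated controls at ~10 d, 0 (no effect) to 100 (complete control).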

rice = assay: Test B flooded paddy test; type: in vivo, Oryza sativa; details: Flood, 250 g ai/ha; 0 to 100 scale where 0 is no effect and 100 is complete control
Method in brief: as §1

ragweed [3] = assay: Test A preemergence; type: in vivo, Ambrosia elatior; details: for Ragweed plant response rating (0 to 100 scale): 31 g ai/ha; for Plant response rating, Ragweed: 125 g ai/ha, 0 to 100 scale where 0 is no effect and 100 is complete control
Method in brief: as §2

corn = assay: Test A postemergence; type: in vivo, Zea mays
Method in brief: as §2

Heteranthera limosa = assay: Test B flooded paddy test; type: in vivo; details: Flood, 250 g ai/ha; 0 to 100 scale where 0 is no effect and 100 is complete control
Method in brief: as §1

kochia [4] = assay: Test A postemergence; type: in vivo, Kochia scoparia
Description: (§3) Seeds of plant species selected from barnyardgrass (Echinochloa crus-galli), kochia (Kochia scoparia), ragweed (common ragweed, Ambrosia elatior), Italian ryegrass (Lolium multiflorum), large (Lg) crabgrass (Digitaria sanguinalis), giant foxtail (Setaria faberii), morningglory (Ipomoea spp.), pigweed (Amaranthus retroflexus), velvetleaf (Abutilon theophrasti), wheat (Triticum aestivum), and corn (Zea mays) were planted into a blend of loam soil and sand and treated preemergence with a directed soil spray using test chemicals formulated in a non-phytotoxic solvent mixture which included a surfactant.
(§4) At the same time, plants selected from these crop and weed species and also blackgrass (Alopecurus myosuroides), and galium (catchweed bedstraw, Galium aparine) were planted in pots containing the same blend of loam soil and sand and treated with postemergence applications of test chemicals formulated in the same manner. Plants ranged in height from 2 to 10 cm and were in the one- to two-leaf stage for the postemergence treatment. Treated plants and untreated controls were maintained in a greenhouse for approximately 10 days, after which time all treated plants were compared to untreated controls and visually evaluated for injury. Plant response ratings, summarized in Table A, are based on a 0 to 100 scale where 0 is no effect and 100 is complete control. A dash (-) response means no test result.

wheat = assay: Test A postemergence; type: in vivo, Triticum aestivum; details: 0 to 100 scale, 0 no effect, 100 complete control
Method in brief: as §2

pigweed [5] = assay: Test A preemergence; type: in vivo, Amaranthus retroflexus; details: for Pigweed plant response rating (0 to 100 scale): 31 g ai/ha; for Plant response rating, Pigweed: 125 g ai/ha, 0 to 100 scale where 0 is no effect and 100 is complete control
Method in brief: as §2

kochia [6] = assay: Test A preemergence; type: in vivo, Kochia scoparia; details: for Kochia plant response rating (0 to 100 scale): 31 g ai/ha; for Plant response rating, Kochia: 125 g ai/ha, 0 to 100 scale where 0 is no effect and 100 is complete control
Method in brief: as §2

galium = assay: Test A postemergence; type: in vivo, Galium aparine
Method in brief: as §2

giant foxtail [7] = assay: Test A preemergence; type: in vivo, Setaria faberii; details: for Foxtail, Giant plant response rating (0 to 100 scale): 31 g ai/ha; for Plant response rating, Foxtail, Giant: 125 g ai/ha, 0 to 100 scale where 0 is no effect and 100 is complete control
Method in brief: as §2

blackgrass = assay: Test A postemergence; type: in vivo, Alopecurus myosuroides
Description: as §3, §4

barnyardgrass [8] = assay: Test A postemergence; type: in vivo, Echinochloa crus-galli
Method in brief: as §2

giant foxtail [9] = assay: Test A postemergence; type: in vivo, Setaria faberii
Method in brief: as §2

sedge, umbrella = assay: Test B flooded paddy test; type: in vivo, Cyperus difformis; details: Flood, 250 g ai/ha; 0 to 100 scale where 0 is no effect and 100 is complete control
Method in brief: as §1

Italian ryegrass [10] = assay: Test A postemergence; type: in vivo, Lolium multiflorum; details: 0 to 100 scale, 0 no effect, 100 complete control
Method in brief: as §2

Italian ryegrass [11] = assay: Test A preemergence; type: in vivo, Lolium multiflorum; details: for Ryegrass, Italian plant response rating (0 to 100 scale): 31 g ai/ha; for Plant response rating, Ryegrass, Italian: 125 g ai/ha, 0 to 100 scale where 0 is no effect and 100 is complete control
Method in brief: as §2

barnyardgrass [12] = assay: Test A preemergence; type: in vivo, Echinochloa crus-galli; details: for Barnyardgrass plant response rating (0 to 100 scale): 31 g ai/ha; for Plant response rating, Barnyardgrass: 125 g ai/ha, 0 to 100 scale where 0 is no effect and 100 is complete control
Method in brief: as §2

ragweed [13] = assay: Test A postemergence; type: in vivo, Ambrosia elatior; details: 0 to 100 scale, 0 no effect, 100 complete control
Description: as §3, §4

[14] = 31 g ai/ha, 0 to 100 scale, 0 no effect, 100 complete control
[15] = 125 g ai/ha, 0 to 100 scale where 0 is no effect and 100 is complete control
[16] = 1000 g ai/ha, 0 to 100 scale, 0 no effect, 100 complete control, approx. 10 days
[17] = 1000 g ai/ha, 0 to 100 scale, 0 no effect, 100 complete control

Row | SMILES | Plant response rating, Barnyardgrass (barnyardgrass [1]) | Plant response rating, Pigweed (pigweed [2]; 31 g ai/ha) | Plant response rating, Rice (rice) | Ragweed plant response rating (0 to 100 scale) (ragweed [3]) | Plant response rating, Ragweed (ragweed [3]) | Plant response rating, Corn (corn; [14]) | Plant response rating, Corn (corn; [15]) | Plant response rating, Ducksalad (Heteranthera limosa) | Plant response rating, Kochia (kochia [4]; [14]) | Plant response rating, Kochia (kochia [4]; [15]) | Plant response rating, Wheat (wheat; 31 g ai/ha) | Pigweed plant response rating (0 to 100 scale) (pigweed [5]) | Plant response rating, Pigweed (pigweed [5]) | Kochia plant response rating (0 to 100 scale) (kochia [6]) | Plant response rating, Kochia (kochia [6]) | Plant response rating, Galium (galium; [14]) | Plant response rating, Galium (galium; [15]) | Foxtail, Giant plant response rating (0 to 100 scale) (giant foxtail [7]) | Plant response rating, Foxtail, Giant (giant foxtail [7]) | Plant response rating, Blackgrass (blackgrass; [14]) | further results
1 | N#Cc1cccc(Oc2ncc(Cl)cn2)c1-n1cc(OCC(F)F)cn1 [Compound 99] | 0 | 100 | 0 | 70 | 90 | 20 | 90 | 0 | 100 | 100 | 50 | 100 | 100 | 100 | 100 | 90 | 100 | 100 | 100 | 50 | Plant response rating, Blackgrass (blackgrass; [15]): 90; Plant response rating, Barnyardgrass (barnyardgrass [8]; [14]): 100; Plant response rating, Barnyardgrass (barnyardgrass [8]; [15]): 100; Plant response rating, Foxtail, Giant (giant foxtail [9]; [14]): 90; Plant response rating, Foxtail, Giant (giant foxtail [9]; [15]): 100; Plant response rating, Sedge, Umbrella (sedge, umbrella): 0; Plant response rating, Ryegrass, Italian (Italian ryegrass [10]; 31 g ai/ha): 20; Ryegrass, Italian plant response rating (0 to 100 scale) (Italian ryegrass [11]): 0; Plant response rating, Ryegrass, Italian (Italian ryegrass [11]): 30; Barnyardgrass plant response rating (0 to 100 scale) (barnyardgrass [12]): 80; Plant response rating, Barnyardgrass (barnyardgrass [12]): 90; Plant response rating, Ragweed (ragweed [13]; 31 g ai/ha): 30
2 | CC(C)Oc1cnn(-c2c(Cl)cccc2Oc2ncc(Cl)cn2)c1 [Compound 103] | 0 | 0 | 0 | 0 | 0 | 0 | 0 | 0 | 0 | 0 | 0 | 0 | 0 | 0 | 0 | 0 | 0 | 0 | 0 | 0 | Plant response rating, Blackgrass (blackgrass; [15]): 0; Plant response rating, Barnyardgrass (barnyardgrass [8]; [14]): 0; Plant response rating, Barnyardgrass (barnyardgrass [8]; [15]): 0; Plant response rating, Foxtail, Giant (giant foxtail [9]; [14]): 0; Plant response rating, Foxtail, Giant (giant foxtail [9]; [15]): 0; Plant response rating, Sedge, Umbrella (sedge, umbrella): 0; Plant response rating, Ryegrass, Italian (Italian ryegrass [10]; 31 g ai/ha): 0; Ryegrass, Italian plant response rating (0 to 100 scale) (Italian ryegrass [11]): 0; Plant response rating, Ryegrass, Italian (Italian ryegrass [11]): 0; Barnyardgrass plant response rating (0 to 100 scale) (barnyardgrass [12]): 0; Plant response rating, Barnyardgrass (barnyardgrass [12]): 0; Plant response rating, Ragweed (ragweed [13]; 31 g ai/ha): 0
3 | CCOC(=O)c1cn(-c2ccccc2Oc2ncc(Cl)cn2)nn1 [Compound 302] | – | – | – | – | – | – | – | – | – | – | – | – | – | – | – | – | – | – | – | – | Plant response rating, Pigweed (pigweed [2]; 1000 g ai/ha): 0; Ragweed plant response rating (ragweed [3]; [16]): 0; Plant response rating, Corn (corn; [17]): 0; Plant response rating, Kochia (kochia [4]; [17]): 0; Plant response rating, Wheat (wheat; 1000 g ai/ha): 0; Pigweed plant response rating (pigweed [5]; [16]): 0; Kochia plant response rating (kochia [6]; [16]): 0; Plant response rating, Galium (galium; [17]): 0; Foxtail, Giant plant response rating (giant foxtail [7]; [16]): 0; Plant response rating, Blackgrass (blackgrass; [17]): 0; Plant response rating, Barnyardgrass (barnyardgrass [8]; [17]): 0; Plant response rating, Foxtail, Giant (giant foxtail [9]; [17]): 0; Plant response rating, Ryegrass, Italian (Italian ryegrass [10]; 1000 g ai/ha): 0; Ryegrass, Italian plant response rating (Italian ryegrass [11]; [16]): 0; Barnyardgrass plant response rating (barnyardgrass [12]; [16]): 0; Plant response rating, Ragweed (ragweed [13]; 1000 g ai/ha): 0
